For 38 compounds, IC50 results are on record in US6534523B1, “Hepatitis C inhibitor tri-peptides” (Boehringer Ingelheim (Canada) Ltd., priority 1998, dated 2003).

In general, IC50 refers to the point on the concentration scale where inhibition reaches its midpoint. High values mean weaker potency in that assay, low ones greater potency in that assay.

The assay addresses HCV NS3 protease (UniProt P26663). The class given is biochemical, HCV genotype 1b. On the set-up: rows headed: IC50 (μM); IC50 (μM). As for the experimental part: Recombinant HCV NS3 Protease/NS4A Cofactor Peptide Radiometric Assay
The enzyme was cloned, expressed and prepared according to the protocol described in Example 36. The enzyme was stored at −80° C., thawed on ice and diluted just prior to use in the assay buffer containing the NS4A cofactor peptide.
The substrate used for the NS3 protease/NS4A cofactor peptide radiometric assay, DDIVPC-SMSYTW, is cleaved between the cysteine and the serine residues by the enzyme. The sequence DDIVPC-SMSYTW corresponds to the NS5A/NS5B natural cleavage site in which the cysteine residue in P2 has been substituted for a proline. […] (molar ratio enzyme:cofactor 1:100) in the absence or presence of inhibitors. The separation of substrate from products is performed by adding avidin-coated agarose beads to the assay mixture followed by filtration. The amount of SMS[^125I-Y]TW product found in the filtrate allows for the calculation of the percentage of substrate conversion and of the percentage of inhibition.
The enzymatic reaction was initiated by the addition of the enzyme/NS4A peptide solution and the assay mixture was incubated for 40 min at 23° C. under gentle agitation. Ten (10) μL of 0.5N NaOH were added and 10 μL 1 M MES, pH 5.8 were added to quench the enzymatic reaction.
A non-linear curve fit with the Hill model was applied to the inhibition-concentration data, and the 50% effective concentration (IC50) was calculated by the use of SAS software (Statistical Software System; SAS Institute, Inc. Cary, N.C.). […]
The NS2-NS5B-3′ non coding region was cloned by RT-PCR into the pCR®3 vector (Invitrogen) using RNA extracted from the serum of an HCV genotype 1b infected individual (provided by Dr. Bernard Willems, Hôpital St-Luc, Montréal, Québec, Canada). The NS3-NS4A DNA region was then subcloned by PCR into the pFastBac™ HTa baculovirus expression vector (Gibco/BRL). The vector sequence includes a region encoding a 28-residue N-terminal sequence which contains a hexahistidine tag. The Bac-to-Bac™ baculovirus expression system (Gibco/BRL) was used to produce the recombinant baculovirus. The full length mature NS3 and NS4A heterodimer protein (His-NS3-NS4AFL) was expressed by infecting 10^6 Sf21 cells/mL with the recombinant baculovirus at a multiplicity of infection of 0.1-0.2 at 27° C. The infected culture was harvested 48 to 64 h later by centrifugation at 4° C. The cell pellet was homogenized in 50 mM NaPO4, pH 7.5, 40% glycerol (w/v), 2 mM β-mercaptoethanol, in presence of a cocktail of protease inhibitors. His-NS3-NS4AFL was then extracted from the cell lysate with 1.5% NP-40, 0.5% Triton X-100, 0.5M NaCl, and a DNase treatment. After ultracentrifugation, the soluble extract was diluted 4-fold and bound on a Pharmacia Hi-Trap Ni-chelating column. […] The His-NS3-NS4AFL was stored at −80° C. in 50 mM sodium phosphate, pH 7.5, 10% (w/v) glycerol, 0.5 M NaCl, 0.25 M imidazole, 0.1% NP-40. It was thawed on ice and diluted just prior to use. The protease activity of His-NS3-NS4AFL was assayed in 50 mM Tris-HCl, pH 8.0, 0.25 M sodium citrate, 0.01% (w/v) n-dodecyl-β-D-maltoside, 1 mM TCEP. Five (5) μM of the internally quenched substrate anthranilyl-DDIVPAbu[C(O)—O]-AMY(3-NO2)TW-OH in presence of various concentrations of inhibitor were incubated with 1.5 nM of His-NS3-NS4AFL for 45 min at 23° C. […] The reaction was terminated with the addition of 1M MES, pH 5.8. Fluorescence of the N-terminal product was monitored on a Perkin-Elmer LS-50B fluorometer equipped with a 96-well plate reader (excitation wavelength: 325 nm; emission wavelength: 423 nm).
The following tables list compounds representative of the invention.

Where two headings read alike, the source gives them in different places.

Sequence of HCV NS3 protease (P26663 1027-1206, other chains not shown): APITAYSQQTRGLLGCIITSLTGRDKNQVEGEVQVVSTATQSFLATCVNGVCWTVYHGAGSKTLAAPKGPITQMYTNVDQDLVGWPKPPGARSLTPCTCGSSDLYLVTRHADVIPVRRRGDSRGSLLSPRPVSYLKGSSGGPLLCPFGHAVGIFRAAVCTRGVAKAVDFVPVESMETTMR

For the setting “Table 7”, `C=CC1CC1(NC(=O)C1CC(Oc2cc(-c3csc(NC(C)(C)C)n3)nc3cc(OC)ccc23)CN1C(=O)C(NC(=O)OC(C)(C)C)C(C)(C)C)C(=O)O` (centres unmarked) [compound 733] displayed an IC50 of 28 nM. Consider `C=CC1CC1(NC(=O)C1CC(Oc2cc(SCC)nc3cc(OC)ccc23)CN1C(=O)C(NC(=O)OC(C)(C)C)C(C)(C)C)C(=O)O` (centres unmarked) [compound 734], for which the IC50 (Table 7) came out at 44 nM. Compound `C=CC1CC1(NC(=O)C1CC(Oc2cc(OCC(C)C)nc3cc(OC)ccc23)CN1C(=O)C(NC(=O)OC(C)(C)C)C(C)(C)C)C(=O)O` (centres unmarked) [compound 735] had an IC50 (Table 7) of 58 nM. Still for that read-out and setting: next, `C=CC1C[C@]1(NC(=O)[C@@H]1C[C@@H](Oc2cc(C(C)(C)C)nc3cc(OC)ccc23)CN1C(=O)[C@@H](NC(=O)OC(C)(C)C)C(C)(C)C)C(=O)O` (some centres unmarked) [compound 736]: 250 nM. On to `C=CC1CC1(NC(=O)C1CC(Oc2cc(C3CCCCC3)nc3cc(OC)ccc23)CN1C(=O)C(NC(=O)OC(C)(C)C)C(C)(C)C)C(=O)O` (centres unmarked) [compound 737], for which half-maximal inhibition (Table 7) (IC50) required 110 nM. In turn, `C=CC1CC1(NC(=O)C1CC(Oc2cc(-c3ccccc3)nc3cc(OC)ccc23)CN1C(=O)C(NC(=O)C(O)C1CCCCC1)C(C)(C)C)C(=O)O` (centres unmarked) [compound 802] yielded a 50% inhibitory concentration (IC50) (Table 8) of 24 nM.

Under “Table 8”, `C=CC1CC1(NC(=O)C1CC(Oc2cc(-c3ccccc3)nc3cc(OC)ccc23)CN1C(=O)C(NC(=O)CC1CCCCC1)C(C)(C)C)C(=O)O` (centres unmarked) [compound 804] came in with a 50% inhibitory concentration (IC50) of 32 nM. Compound `C=CC1CC1(NC(=O)C1CC(Oc2cc(-c3ccccc3)nc3cc(OC)ccc23)CN1C(=O)C(NC(C)=O)C(C)(C)C)C(=O)O` (centres unmarked) [compound 805] came in with a concentration for half-maximal inhibition (IC50) (Table 8) of 83 nM. Same read-out and setting: next, `C=CC1CC1(NC(=O)C1CC(Oc2cc(-c3ccccc3)nc3cc(OC)ccc23)CN1C(=O)C(NC(=O)C(C)C1CCCCC1)C(C)(C)C)C(=O)O` (centres unmarked) [compound 806]: 36 nM; `C=CC1CC1(NC(=O)C1CC(Oc2cc(-c3ccccc3)nc3cc(OC)ccc23)CN1C(=O)C(NC(=O)NC(C)C)C(C)(C)C)C(=O)O` (centres unmarked) [compound 807]: 10 nM; `C=CC1CC1(NC(=O)C1CC(Oc2cc(-c3ccccc3)nc3cc(OC)ccc23)CN1C(=O)C(NC(=O)NC1CCCCC1)C(C)(C)C)C(=O)O` (centres unmarked) [compound 808]: 8 nM. `C=CC1CC1(NC(=O)C1CC(Oc2cc(-c3ccccc3)nc3cc(OC)ccc23)CN1C(=O)C(Nc1ccccc1)C(C)C)C(=O)O` (centres unmarked) [compound 809] gave a 50% inhibitory concentration (IC50) (Table 8) of 71 nM. Compared with the last compound, the IC50 is about 8.9-fold higher. The same measure, in the same setting: for `C=CC1CC1(NC(=O)C1CC(Oc2cc(-c3ccccc3)nc3cc(OC)ccc23)CN1C(=O)C(NC(=O)COc1c(C)cccc1C)C(C)(C)C)C(=O)O` (centres unmarked) [compound 810] the value was 450 nM. On the same count and under the same terms, for `C=CC1CC1(NC(=O)C1CC(Oc2cc(-c3ccc(Cl)cc3)nc3cc(OC)ccc23)CN1C(=O)C(NC(=O)OC(C)(C)C)C(C)(C)C)C(=O)O` (centres unmarked) [compound 811] the value was 40 nM; for `C=CC1CC1(NC(=O)C1CC(Oc2cc(-c3ccccc3)nc3cc(OC)ccc23)CN1C(=O)C(NC(=O)Nc1ccccc1)C(C)(C)C)C(=O)O` (centres unmarked) [compound 812], 13 nM; for `C=CC1CC1(NC(=O)C1CC(Oc2cc(-c3ccccc3)nc3cc(OC)ccc23)CN1C(=O)C(NC(=S)NC(C)(C)C)C(C)(C)C)C(=O)O` (centres unmarked) [compound 813], 20 nM. Still for that read-out and setting: next, `C=CC1CC1(NC(=O)C1CC(Oc2cc(-c3ccccc3Cl)nc3cc(OC)ccc23)CN1C(=O)C(NC(=O)OC(C)(C)C)C(C)(C)C)C(=O)O` (centres unmarked) [compound 814]: 130 nM. As to `C=CC1CC1(NC(=O)C1CC(Oc2cc(-c3cccc(Cl)c3)nc3cc(OC)ccc23)CN1C(=O)C(NC(=O)OC(C)(C)C)C(C)(C)C)C(=O)O` (centres unmarked) [compound 815], under “Table 8”, 160 nM corresponded to half-maximal inhibition (IC50). `C=CC1CC1(NC(=O)C1CC(Oc2cc(-c3ccccc3)nc3cc(OC)ccc23)CN1C(=O)C(NC(=O)NCC)C(C)(C)C)C(=O)O` (centres unmarked) [compound 816] registered an IC50 (Table 8) of 32 nM. `C=CC1CC1(NC(=O)C1CC(Oc2cc(-c3ccccc3)nc3cc(OC)ccc23)CN1C(=O)C(NC(=O)NCc1ccccc1)C(C)(C)C)C(=O)O` (centres unmarked) [compound 817] showed an IC50 (Table 8) of 17 nM. For the setting “Table 8”, `C=CC1CC1(NC(=O)C1CC(Oc2cc(-c3ccccc3)nc3cc(OC)ccc23)CN1C(=O)C(NC(=S)NC1CCCCC1)C(C)(C)C)C(=O)O` (centres unmarked) [compound 818] had an IC50 of 19 nM. In turn, `C=CC1CC1(NC(=O)C1CC(Oc2cc(-c3ccccc3)nc3cc(OC)ccc23)CN1C(=O)C(Nc1ccc([N+](=O)[O-])c(C(F)(F)F)c1)C(C)C)C(=O)O` (centres unmarked) [compound 819] displayed a half-maximal inhibitory concentration (IC50) (Table 8) of 320 nM. Compared with the last compound, the IC50 is about 17-fold higher. Compound `C=CC1CC1(NC(=O)C1CC(Oc2cc(-c3ccccc3)nc3cc(OC)ccc23)CN1C(=O)C(Nc1ccc(N)c(C(F)(F)F)c1)C(C)C)C(=O)O` (centres unmarked) [compound 820] registered a 50% inhibitory concentration (IC50) (Table 8) of 63 nM. This IC50 is about 5.1-fold lower than that of the compound before. As to `C=CC1CC1(NC(=O)C1CC(Oc2cc(-c3ccccc3)nc3cc(OC)ccc23)CN1C(=O)C(Nc1cccc(OC)c1)C(C)C)C(=O)O` (centres unmarked) [compound 821], the half-maximal inhibitory concentration (IC50) (Table 8) worked out at 120 nM. Where the note is “Table 8”, `C=CC1CC1(NC(=O)C1CC(Oc2cc(-c3ccccc3)nc3cc(OC)ccc23)CN1C(=O)C(Nc1ccc(C)cc1)C(C)C)C(=O)O` (centres unmarked) [compound 822] registered an IC50 of 50 nM. This IC50 is about 2.4-fold lower than that of the compound before. Consider `C=CC1CC1(NC(=O)C1CC(Oc2cc(-c3ccccc3OC)nc3cc(OC)ccc23)CN1C(=O)C(NC(=O)OC(C)(C)C)C(C)(C)C)C(=O)O` (centres unmarked) [compound 823], for which, for the setting “Table 8”, the IC50 is 107 nM. The same measure, in the same setting: for `C=CC1CC1(NC(=O)C1CC(Oc2cc(-c3ccccc3)nc3cc(OC)ccc23)CN1C(=O)C(NCc1ccccc1)C(C)C)C(=O)O` (centres unmarked) [compound 826] the value was 780 nM. Under “Table 8”, `C=CC1CC1(NC(=O)C1CC(Oc2cc(-c3ccccc3)nc3cc(OC)ccc23)CN1C(=O)C(NC(=O)NN(C)C)C(C)(C)C)C(=O)O` (centres unmarked) [compound 827] displayed a half-maximal inhibitory concentration (IC50) of 270 nM.

For the setting “Table 8”, `C=CC1CC1(NC(=O)C1CC(Oc2cc(-c3ccccc3)nc3cc(OC)ccc23)CN1C(=O)C(Nc1cccc(C(C)=O)c1)C(C)C)C(=O)O` (centres unmarked) [compound 828] showed an IC50 of 100 nM. Against the preceding compound, the IC50 is about 2.7-fold lower.

Where the note is “Table 8”, `C=CC1CC1(NC(=O)C1CC(Oc2cc(-c3ccccc3)nc3cc(OC)ccc23)CN1C(=O)C(NC(=O)Nc1c(C)cccc1C)C(C)(C)C)C(=O)O` (centres unmarked) [compound 829] returned a concentration for half-maximal inhibition (IC50) of 57 nM. This IC50 lies about 1.8-fold lower than the previous one. In turn, `C=CC1CC1(NC(=O)C1CC(Oc2cc(-c3ccccc3)nc3cc(OC)ccc23)CN1C(=O)C(NC(=O)OC)C(C)(C)C)C(=O)O` (centres unmarked) [compound 830] displayed an IC50 (Table 8) of 111 nM.

In the case of `C=CC1CC1(NC(=O)C1CC(Oc2cc(-c3ccccc3)nc3cc(OC)ccc23)CN1C(=O)C(NC(=O)NC(C)C(N)=O)C(C)(C)C)C(=O)O` (centres unmarked) [compound 831], the 50% inhibitory concentration (IC50) (Table 8) came to 15 nM. `C=CC1CC1(NC(=O)C1CC(Oc2cc(-c3ccccc3)nc3cc(OC)ccc23)CN1C(=O)C(NC(=O)NC(C)(C)C(N)=O)C(C)(C)C)C(=O)O` (centres unmarked) [compound 833] gave an IC50 (Table 8) of 15 nM.

In the case of `C=CC1CC1(NC(=O)C1CC(Oc2cc(-c3ccccc3)nc3cc(OC)ccc23)CN1C(=O)C(Nc1cccc(C)c1)C(C)C)C(=O)O` (centres unmarked) [compound 834], the half-maximal inhibitory concentration (IC50) (Table 8) was 74 nM.

For `C=CC1CC1(NC(=O)C1CC(Oc2cc(-c3ccccc3)nc3cc(OC)ccc23)CN1C(=O)C(NC(=O)NC(C)(C)CO)C(C)(C)C)C(=O)O` (centres unmarked) [compound 835], the IC50 (Table 8) worked out at 7 nM.

With `C=CC1CC1(NC(=O)C1CC(Oc2cc(-c3ccccc3)nc3cc(OC)ccc23)CN1C(=O)C(Nc1ccc([N+](=O)[O-])cc1)C(C)C)C(=O)O` (centres unmarked) [compound 836], the IC50 (Table 8) is 130 nM. Under “Table 8”, `C=CC1CC1(NC(=O)C1CC(Oc2cc(-c3ccccc3)nc3cc(OC)ccc23)CN1C(=O)C(Nc1ccc(Cl)cc1)C(C)C)C(=O)O` (centres unmarked) [compound 837] came in with an IC50 of 98 nM. This IC50 and that of the compound before are within 1.5-fold of each other. Where the note is “Table 8”, `C=CC1CC1(NC(=O)C1CC(Oc2cc(-c3ccccc3)nc3cc(OC)ccc23)CN1C(=O)C(Nc1cccc(CO)c1)C(C)C)C(=O)O` (centres unmarked) [compound 838] registered a half-inhibitory concentration (IC50) of 94 nM.
